Values belong to the compound of their own block, whether it stands above or below them.
Key:
[1] = reduced form with two -SH groups; cited from earlier work
[2] = Storage stability of the nicotinamide lipoate crystalline powder, followed by repeated infrared spectrophotometry; format: physicochemical
From the text: A small quantity of the powder as a mineral oil mull spread was spread on NaCl polished crystal plates. The plate was placed in a Beckman Infrared Spectrophotometer AccuLab 2 grating machine, linear in wave number.

[3] = can degrade under some warehousing conditions; cited from earlier work

Compound: O=C(O)CCCC[C@@H](S)CCS (racemic) [DHLA, dihydrolipoate]
Oxidation potential [1]: −0.29 V

Change in crystal form or chemical composition on standing ([2]; ambient conditions (light and temperature) for over a year): essentially no change
Infrared spectrum on repeat spectrophotometry compared with initial spectrum ([2]; mineral oil mull on NaCl plates, repeated at about 3 and 17 months, ambient conditions (light and temperature)): essentially the same
Compound: NC(=O)c1cccnc1.O=C(O)CCCCC1CCSS1 (stereo not shown) [Example 1]

Compound: O=C(O)CCCC[C@@H]1CCSS1 [R-LA, R-α-lipoic acid]
Temperature above which unstable [3]: above 40 °C

From patent US20040044046A1, “Stability of lipoic acid” (priority 2002, published 2004)
